Like-named read-outs stand apart in the source and are kept apart here.
What was measured:
[1] = molecular target: T1, V600E-B-RAF (Homo sapiens, UniProt P15056, V600E); assay: Cell-free kinase profiling, V600E-B-RAF; assay type: biochemical; settings: for One-dose (1 µM) results against V600E-B-RAF (% inhibition) / inhibition at 1 µM: mean of duplicate assays ± SEM; for inhibition at 1 µM: read-out: One-dose (1 µM) results against V600E-B-RAF (% inhibition)
Description: The reaction was initiated by the addition of the Mg-ATP mix. After incubation for 40 min at room temperature, the reaction was stopped by the addition of 5 µL of a 3% phosphoric acid solution. 10 µL of the reaction was then spotted onto a P30 filtermat and washed three times for 5 min in 75 mM phosphoric acid and once in methanol before drying and scintillation counting.
Target sequence in this assay (P15056 whole entry V600E): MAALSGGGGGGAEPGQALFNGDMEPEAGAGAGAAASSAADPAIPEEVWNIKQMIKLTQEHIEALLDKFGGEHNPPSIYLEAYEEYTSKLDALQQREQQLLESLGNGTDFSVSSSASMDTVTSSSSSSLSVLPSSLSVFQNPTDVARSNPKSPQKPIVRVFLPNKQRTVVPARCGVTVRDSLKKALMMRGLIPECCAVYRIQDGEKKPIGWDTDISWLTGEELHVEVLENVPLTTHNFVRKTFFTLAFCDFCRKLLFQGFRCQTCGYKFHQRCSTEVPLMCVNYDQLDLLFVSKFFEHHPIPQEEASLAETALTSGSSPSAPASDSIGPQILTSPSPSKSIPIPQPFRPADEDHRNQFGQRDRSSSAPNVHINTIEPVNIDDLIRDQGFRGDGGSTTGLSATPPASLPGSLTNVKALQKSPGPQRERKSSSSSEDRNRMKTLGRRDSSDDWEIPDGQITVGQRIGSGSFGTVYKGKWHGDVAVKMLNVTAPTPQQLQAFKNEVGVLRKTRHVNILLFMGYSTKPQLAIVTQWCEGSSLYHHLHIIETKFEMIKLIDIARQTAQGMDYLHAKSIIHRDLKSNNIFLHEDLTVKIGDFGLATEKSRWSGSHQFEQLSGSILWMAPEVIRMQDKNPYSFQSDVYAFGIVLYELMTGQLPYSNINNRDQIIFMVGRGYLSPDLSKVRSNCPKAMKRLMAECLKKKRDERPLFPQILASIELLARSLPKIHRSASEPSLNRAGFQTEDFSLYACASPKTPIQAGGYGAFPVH

[2] = molecular target: RAF1 (Homo sapiens, UniProt P04049); assay: Cell-free kinase profiling, RAF1; assay type: biochemical; settings: for One-dose (1 µM) results against RAF1 (% inhibition) / inhibition at 1 µM: mean of duplicate assays ± SEM; for inhibition at 1 µM: read-out: One-dose (1 µM) results against RAF1 (% inhibition)
RAF1, sequence (P04049 whole entry): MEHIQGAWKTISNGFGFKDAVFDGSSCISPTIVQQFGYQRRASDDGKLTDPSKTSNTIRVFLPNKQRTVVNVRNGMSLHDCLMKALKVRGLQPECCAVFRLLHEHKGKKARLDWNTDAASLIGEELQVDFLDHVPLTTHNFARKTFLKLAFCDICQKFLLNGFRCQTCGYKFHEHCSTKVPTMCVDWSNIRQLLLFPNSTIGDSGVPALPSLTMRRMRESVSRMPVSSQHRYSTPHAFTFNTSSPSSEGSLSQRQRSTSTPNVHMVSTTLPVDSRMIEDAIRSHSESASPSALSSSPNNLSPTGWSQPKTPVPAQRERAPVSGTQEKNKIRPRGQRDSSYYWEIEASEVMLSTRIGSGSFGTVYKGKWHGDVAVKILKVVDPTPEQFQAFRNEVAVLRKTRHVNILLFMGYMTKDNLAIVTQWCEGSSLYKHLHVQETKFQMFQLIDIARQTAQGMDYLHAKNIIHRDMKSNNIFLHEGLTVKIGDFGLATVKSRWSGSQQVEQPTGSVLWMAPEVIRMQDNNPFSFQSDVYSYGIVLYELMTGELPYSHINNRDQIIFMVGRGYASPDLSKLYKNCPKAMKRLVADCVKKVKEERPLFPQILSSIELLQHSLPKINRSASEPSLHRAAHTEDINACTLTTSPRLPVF
Description: (§1) In a final volume of 25 µL, the tested kinase (5–10 mU) was incubated with 25 mM Tris pH 7.5, 0.02 mM EDTA, 0.66 mg/mL myelin basic protein, 10 mM magnesium acetate and [γ^33P-ATP] (specific activity approx. 500 cpm/pmol, concentration as required). The reaction was initiated by the addition of the Mg-ATP mix. After incubation for 40 min at room temperature, the reaction was stopped by the addition of 5 µL of a 3% phosphoric acid solution. 10 µL of the reaction was then spotted onto a P30 filtermat and washed three times for 5 min in 75 mM phosphoric acid and once in methanol before drying and scintillation counting.

[3] = molecular target: Aurora-A (Homo sapiens, UniProt O14965); assay: Kinase panel, Aurora-A; assay type: biochemical; settings: mean ± SEM
Description: as §1

[4] = molecular target: mTOR (Homo sapiens, UniProt P42345); assay: Kinase panel, mTOR; assay type: biochemical; settings: mean ± SEM
Description: as §1

[5] = molecular target: LCK (Homo sapiens, UniProt P06239); assay: Kinase panel, LCK; assay type: biochemical; settings: mean ± SEM
Description: as §1

[6] = molecular target: T1, V600E-B-RAF; assay: In-cell kinase assay (MEK1 phosphorylation ELISA in MEF-V600E-B-RAF:ER cells); assay type: cell-based; settings: MEF cell line, phospho-MEK1 readout, 90 min compound incubation; read-out: in-cell V600E-B-RAF kinase inhibition IC50
Description: MEF-V600E-B-RAF:ER cells were plated in Dulbecco’s modified eagle medium (DMEM) supplemented with 10% FCS in multiwell cell culture plates. Compound incubation (90 min at 37 °C) was done in serum-free medium. […] For stimulation, cells were treated with 1 µM hydroxytamoxifen for 1 h at room temperature. After cell lysis, quantification of MEK1 phosphorylation was assessed in 96-well plates via sandwich-ELISA using a MEK1 specific capture antibody and a phospho-MEK1-Ser218/222 specific detection antibody.

[7] = molecular target: cKIT (Homo sapiens, UniProt P10721); assay: Kinase panel, cKIT; assay type: biochemical; settings: mean ± SEM
Description: as §1

[8] = molecular target: PDGFRβ (Homo sapiens, UniProt P09619); assay: Kinase panel, PDGFRβ; assay type: biochemical; settings: mean ± SEM
Description: as §1

[9] = molecular target: BTK (Homo sapiens, UniProt Q06187); assay: Kinase panel, BTK; assay type: biochemical; settings: mean ± SEM
Description: as §1

[10] = system: UACC-62 melanoma cell line; assay: MTT assay, UACC-62; assay type: cell-based; settings: Homo sapiens, 48 h, mean of triplicate assays ± SEM, read-out: Antiproliferative activity (IC50 value, µM) UACC-62
Description: (§2) The melanoma and normal skin cell lines were maintained in DMEM including 10% foetal bovine serum (FBS) and 1% penicillin/streptomycin in a humid atmosphere containing 5% carbon dioxide at 37 °C. […] The cells were incubated for 48 h following treatment with the test compounds. The cellular viability was assessed by the conventional 3–(4,5-dimethylthiazol-2-yl)-2,5-diphenyltetrazolium bromide (MTT) reduction assay. MTT assays were carried out with CellTiter 96® (Promega) according to the manufacturer’s instructions. The absorbance at 590 nm was recorded using EnVision 2103 (Perkin Elmer; Boston, MA, USA). The IC50 values were calculated using GraphPad Prism 4.0 software. Triplicate testing was performed.

[11] = molecular target: FLT3 (Homo sapiens, UniProt P36888); assay: Kinase panel, FLT3; assay type: biochemical
FLT3, sequence (P36888 27-993, species assumed): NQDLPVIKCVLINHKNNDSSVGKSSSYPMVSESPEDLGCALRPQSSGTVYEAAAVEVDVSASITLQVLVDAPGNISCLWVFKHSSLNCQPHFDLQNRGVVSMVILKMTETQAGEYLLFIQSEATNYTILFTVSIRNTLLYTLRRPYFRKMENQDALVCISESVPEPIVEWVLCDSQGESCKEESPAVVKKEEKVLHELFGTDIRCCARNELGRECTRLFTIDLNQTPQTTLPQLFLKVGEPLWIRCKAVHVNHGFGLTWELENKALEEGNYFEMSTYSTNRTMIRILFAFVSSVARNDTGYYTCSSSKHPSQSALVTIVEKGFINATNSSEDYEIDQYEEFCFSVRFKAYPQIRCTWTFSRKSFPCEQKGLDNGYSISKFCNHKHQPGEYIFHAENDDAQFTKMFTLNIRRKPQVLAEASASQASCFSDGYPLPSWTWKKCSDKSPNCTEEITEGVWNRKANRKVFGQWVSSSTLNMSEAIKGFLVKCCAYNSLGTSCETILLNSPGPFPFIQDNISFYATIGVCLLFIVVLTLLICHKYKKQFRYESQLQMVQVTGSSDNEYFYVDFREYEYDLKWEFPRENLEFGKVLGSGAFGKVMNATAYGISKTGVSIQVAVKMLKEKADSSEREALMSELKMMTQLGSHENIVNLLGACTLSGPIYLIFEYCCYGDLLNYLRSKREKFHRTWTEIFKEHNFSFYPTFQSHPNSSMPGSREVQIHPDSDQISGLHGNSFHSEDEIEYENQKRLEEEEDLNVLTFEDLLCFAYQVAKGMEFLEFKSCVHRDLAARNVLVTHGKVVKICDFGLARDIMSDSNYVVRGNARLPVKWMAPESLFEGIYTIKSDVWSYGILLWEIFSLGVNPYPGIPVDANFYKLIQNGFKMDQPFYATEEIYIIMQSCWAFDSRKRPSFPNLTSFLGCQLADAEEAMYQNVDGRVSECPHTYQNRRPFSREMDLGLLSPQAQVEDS
Description: as §1

[12] = molecular target: JAK2 (Homo sapiens, UniProt O60674); assay: Kinase panel, JAK2; assay type: biochemical; settings: mean ± SEM
Description: as §1

[13] = molecular target: ErbB2 (Homo sapiens, UniProt P04626); assay: Kinase panel, ErbB2; assay type: biochemical; settings: mean ± SEM
Description: as §1

[14] = molecular target: TRKA (Homo sapiens, UniProt P04629); assay: Kinase panel, TRKA; assay type: biochemical; settings: mean ± SEM
Description: as §1

[15] = system: CCD1106K normal skin epithelial cell line; assay: MTT assay, CCD1106K normal skin cells; assay type: cell-based; settings: 48 h, mean of triplicate assays ± SEM, read-out: Antiproliferative activity (IC50 value, µM) CCD1106K normal skin cells
Description: as §2

[16] = system: A375 melanoma cell line; assay: MTT assay, A375; assay type: cell-based; settings: Homo sapiens, A-375, 48 h, mean of triplicate assays ± SEM, read-out: Antiproliferative activity (IC50 value, µM) A375
Description: as §2

[17] = molecular target: EGFR (Homo sapiens, UniProt P00533); assay: Kinase panel, EGFR; assay type: biochemical; settings: mean ± SEM
Description: as §1

[18] = molecular target: JAK1 (Homo sapiens, UniProt P23458); assay: Kinase panel, JAK1; assay type: biochemical; settings: mean ± SEM
JAK1, sequence (P23458 whole entry): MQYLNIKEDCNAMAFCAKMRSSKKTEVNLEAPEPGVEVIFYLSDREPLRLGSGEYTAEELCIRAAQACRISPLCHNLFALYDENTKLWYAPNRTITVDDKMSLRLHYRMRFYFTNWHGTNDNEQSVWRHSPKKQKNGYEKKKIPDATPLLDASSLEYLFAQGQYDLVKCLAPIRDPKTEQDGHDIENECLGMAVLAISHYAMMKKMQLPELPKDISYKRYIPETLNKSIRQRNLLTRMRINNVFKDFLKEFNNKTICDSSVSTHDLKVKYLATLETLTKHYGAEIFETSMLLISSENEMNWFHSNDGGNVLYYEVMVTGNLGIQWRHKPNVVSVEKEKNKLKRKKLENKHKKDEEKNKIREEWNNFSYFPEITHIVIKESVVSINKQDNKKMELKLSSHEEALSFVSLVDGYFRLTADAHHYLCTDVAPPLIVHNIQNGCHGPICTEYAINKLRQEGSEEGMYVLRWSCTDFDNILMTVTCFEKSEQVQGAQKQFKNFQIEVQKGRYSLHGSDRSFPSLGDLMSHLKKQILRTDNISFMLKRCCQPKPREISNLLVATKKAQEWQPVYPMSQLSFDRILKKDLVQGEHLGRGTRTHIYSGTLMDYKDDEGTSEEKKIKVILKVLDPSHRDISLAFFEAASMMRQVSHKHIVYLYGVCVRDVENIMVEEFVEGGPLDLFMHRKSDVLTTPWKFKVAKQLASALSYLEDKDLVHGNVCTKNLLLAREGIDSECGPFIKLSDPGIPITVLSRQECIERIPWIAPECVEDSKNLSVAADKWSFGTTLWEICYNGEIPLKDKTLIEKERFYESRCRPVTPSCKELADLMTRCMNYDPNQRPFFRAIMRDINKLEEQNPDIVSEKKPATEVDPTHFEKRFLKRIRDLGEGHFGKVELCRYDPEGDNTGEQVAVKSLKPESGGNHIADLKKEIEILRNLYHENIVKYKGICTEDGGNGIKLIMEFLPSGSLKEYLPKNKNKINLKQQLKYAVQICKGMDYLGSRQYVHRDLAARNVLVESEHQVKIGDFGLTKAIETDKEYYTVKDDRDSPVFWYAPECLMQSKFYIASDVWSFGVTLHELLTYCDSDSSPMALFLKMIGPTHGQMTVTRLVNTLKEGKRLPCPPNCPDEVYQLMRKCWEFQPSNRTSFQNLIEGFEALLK
Description: as §1

[19] = molecular target: PI3Kα (Homo sapiens, UniProt P42336); assay: Kinase panel, PI3Kα; assay type: biochemical; settings: mean ± SEM
Description: as §1

[20] = system: four melanoma cell lines; assay: MTT assay, four melanoma cell lines (range); assay type: cell-based; settings: range over A375, MDA-MB-435, SK-MEL-28, UACC-62; read-out: IC50 against four melanoma cell lines (range)
Description: as §2

[21] = system: 30-kinase panel; assay: 30-kinase panel as a whole; assay type: biochemical; settings: 1 µM; all panel kinases apart from V600E-B-RAF and FLT3
Description: as §1

[22] = molecular target: VRK1 (Homo sapiens, UniProt Q99986); assay: Kinase panel, VRK1; assay type: biochemical; settings: mean ± SEM
Description: as §1

[23] = molecular target: PI3K-C2α (Homo sapiens, UniProt O00443); assay: Kinase panel, PI3K-C2α; assay type: biochemical; settings: mean ± SEM
Description: as §1

[24] = molecular target: DMPK (Homo sapiens, UniProt Q09013); assay: Kinase panel, DMPK; assay type: biochemical; settings: mean ± SEM
Description: as §1

[25] = molecular target: MEK1 (Homo sapiens, UniProt Q02750); assay: Kinase panel, MEK1; assay type: biochemical; settings: mean ± SEM
MEK1, sequence (Q02750 whole entry): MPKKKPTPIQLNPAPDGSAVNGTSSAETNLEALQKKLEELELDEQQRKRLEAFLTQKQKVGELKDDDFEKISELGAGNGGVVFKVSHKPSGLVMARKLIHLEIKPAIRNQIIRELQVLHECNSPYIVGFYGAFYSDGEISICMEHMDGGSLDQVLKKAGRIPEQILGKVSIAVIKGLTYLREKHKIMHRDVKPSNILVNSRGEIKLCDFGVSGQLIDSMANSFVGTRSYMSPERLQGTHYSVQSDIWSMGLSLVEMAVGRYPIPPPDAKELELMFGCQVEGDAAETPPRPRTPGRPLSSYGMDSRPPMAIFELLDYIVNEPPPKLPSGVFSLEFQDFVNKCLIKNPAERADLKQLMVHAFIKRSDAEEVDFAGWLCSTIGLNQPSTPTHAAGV
Description: as §1

[26] = molecular target: B-RAF^wt (Homo sapiens, UniProt P15056); assay: Kinase panel, B-RAF wt; assay type: biochemical; settings: mean ± SEM
Description: as §1

[27] = molecular target: MEK2 (Homo sapiens, UniProt P36507); assay: Kinase panel, MEK2; assay type: biochemical; settings: mean ± SEM
Description: as §1

[28] = system: SK-MEL-28 melanoma cell line; assay: MTT assay, SK-MEL-28; assay type: cell-based; settings: Homo sapiens, 48 h, mean of triplicate assays ± SEM, read-out: Antiproliferative activity (IC50 value, µM) SK-MEL-28
Description: as §2

[29] = molecular target: A-RAF (Homo sapiens, UniProt P10398); assay: Kinase panel, A-RAF; assay type: biochemical; settings: mean ± SEM
Description: as §1

[30] = system: MDA-MB-435 melanoma cell line; assay: MTT assay, MDA-MB-435; assay type: cell-based; settings: Homo sapiens, 48 h, mean of triplicate assays ± SEM, read-out: Antiproliferative activity (IC50 value, µM) MDA-MB-435
Description: as §2

[31] = molecular target: JNK1(α1) (Homo sapiens, UniProt P45983); assay: Kinase panel, JNK1(α1); assay type: biochemical; settings: mean ± SEM
Description: as §1

[32] = molecular target: ErbB4 (Homo sapiens, UniProt Q15303); assay: Kinase panel, ErbB4; assay type: biochemical; settings: mean ± SEM
Description: as §1

[33] = molecular target: ROS (Homo sapiens, UniProt P08922); assay: Kinase panel, ROS; assay type: biochemical; settings: mean ± SEM
Description: as §1

[34] = molecular target: KDR (Homo sapiens, UniProt P35968); assay: Kinase panel, KDR; assay type: biochemical; settings: mean ± SEM
Description: as §1

[35] = molecular target: ABL (Homo sapiens, UniProt P00519); assay: Kinase panel, ABL; assay type: biochemical; settings: mean ± SEM
ABL, sequence (P00519 whole entry): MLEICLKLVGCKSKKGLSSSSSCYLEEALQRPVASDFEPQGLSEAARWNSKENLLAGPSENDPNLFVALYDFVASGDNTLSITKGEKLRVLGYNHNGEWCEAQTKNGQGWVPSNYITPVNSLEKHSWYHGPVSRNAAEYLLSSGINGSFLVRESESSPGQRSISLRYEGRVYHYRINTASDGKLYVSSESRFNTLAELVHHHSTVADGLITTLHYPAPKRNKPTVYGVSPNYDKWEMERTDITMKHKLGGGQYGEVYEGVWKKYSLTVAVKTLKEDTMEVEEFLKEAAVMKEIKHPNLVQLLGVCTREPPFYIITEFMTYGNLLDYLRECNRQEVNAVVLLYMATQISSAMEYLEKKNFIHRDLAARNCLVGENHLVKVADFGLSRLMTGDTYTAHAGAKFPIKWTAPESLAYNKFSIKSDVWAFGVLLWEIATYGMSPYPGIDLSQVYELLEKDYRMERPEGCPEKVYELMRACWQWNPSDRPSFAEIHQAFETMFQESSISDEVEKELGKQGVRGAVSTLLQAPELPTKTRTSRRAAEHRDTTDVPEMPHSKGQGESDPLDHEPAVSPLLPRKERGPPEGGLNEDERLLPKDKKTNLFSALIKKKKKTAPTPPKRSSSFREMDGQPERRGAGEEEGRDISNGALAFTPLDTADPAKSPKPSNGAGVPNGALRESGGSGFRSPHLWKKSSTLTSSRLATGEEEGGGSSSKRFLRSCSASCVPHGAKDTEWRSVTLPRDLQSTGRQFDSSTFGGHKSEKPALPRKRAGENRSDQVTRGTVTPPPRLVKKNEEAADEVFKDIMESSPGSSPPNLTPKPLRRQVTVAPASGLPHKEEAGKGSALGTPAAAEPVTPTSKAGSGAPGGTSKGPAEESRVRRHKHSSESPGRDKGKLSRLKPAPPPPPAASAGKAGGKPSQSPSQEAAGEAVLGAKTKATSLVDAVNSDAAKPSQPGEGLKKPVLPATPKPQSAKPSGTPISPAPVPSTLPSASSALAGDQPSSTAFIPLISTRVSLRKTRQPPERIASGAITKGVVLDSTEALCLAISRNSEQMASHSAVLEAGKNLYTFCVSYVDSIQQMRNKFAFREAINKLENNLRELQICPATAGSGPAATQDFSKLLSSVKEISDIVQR
Description: as §1

[36] = molecular target: ALK (Homo sapiens, UniProt Q9UM73); assay: Kinase panel, ALK; assay type: biochemical; settings: mean ± SEM
Description: as §1

[37] = molecular target: FMS (Homo sapiens, UniProt P07333); assay: Kinase panel, FMS; assay type: biochemical; settings: mean ± SEM
Description: as §1

[38] = 10-dose mode, read-out: IC50 value (nM) against V600E-B-RAF
[39] = from the IC50 values of Table 1, used for QSAR
[40] = 10-dose mode, read-out: IC50 value (nM) against RAF1

COc1cccc(-c2nc3sccn3c2-c2ccnc(NCCNC(=O)c3ccccc3)n2)c1 [Compound 1u]
One-dose (1 µM) results against V600E-B-RAF (% inhibition) [1]: 95.03% ± 0.66%
IC50 [1, 38]: 45.1 nM
pIC50 (V600E- B-RAF) [1, 39]: 7.346
One-dose (1 µM) results against RAF1 (% inhibition) [2]: 74.00% ± 0.64%

COc1cccc(-c2nc3sccn3c2-c2ccnc(NCCNC(=O)c3ccccc3O)n2)c1 [Compound 1v]
One-dose (1 µM) results against V600E-B-RAF (% inhibition) [1]: 90.82% ± 0.25%
IC50 [1, 38]: 100 nM
pIC50 (V600E- B-RAF) [1, 39]: 7.000
One-dose (1 µM) results against RAF1 (% inhibition) [2]: 59.25% ± 2.53%

O=C(NCCNc1nccc(-c2c(-c3cccc(O)c3)nc3sccn23)n1)c1ccccc1 [Compound 1zb]
inhibition at 1 µM [3]: 49.8%
inhibition at 1 µM [4]: 7.83%
inhibition at 1 µM [5]: 12.4%
IC50 [6]: 190 nM
inhibition at 1 µM [7]: 9.63%
inhibition at 1 µM [8]: 12.5%
inhibition at 1 µM [9]: 17%
IC50 [10]: 0.18 ± 0.02 µM
inhibition at 1 µM ([11]; 1 µM, mean ± SEM): 73.1%
IC50 ([11]; read-out: IC50 (nM) against FLT3): 838 nM
inhibition at 1 µM [12]: 3.76%
inhibition at 1 µM [13]: 2.17%
inhibition at 1 µM [14]: 46.7%
IC50 [15]: 9.26 ± 0.38 µM
IC50 [16]: 0.46 ± 0.03 µM
inhibition at 1 µM [17]: 19.9%
inhibition at 1 µM [18]: -0.26%
inhibition at 1 µM [19]: 5.85%
IC50 [20]: 180 to 590 nM
inhibitory effect against all the other kinases of the panel [21]: less than 50%
inhibition at 1 µM [1]: 99.5%
IC50 [1, 38]: 0.978 nM
inhibition at 1 µM [22]: 3.93%
inhibition at 1 µM [23]: 50%
inhibition at 1 µM [24]: 0.84%
inhibition at 1 µM [25]: 1.5%
inhibition at 1 µM [26]: 23.4%
inhibition at 1 µM [27]: 26.6%
IC50 [28]: 0.38 ± 0.05 µM
inhibition at 1 µM [29]: 9.14%
IC50 [30]: 0.59 ± 0.06 µM
inhibition at 1 µM [31]: 0.76%
inhibition at 1 µM [32]: 13.7%
inhibition at 1 µM [33]: 2.02%
inhibition at 1 µM [34]: 18.8%
inhibition at 1 µM [35]: 7.57%
inhibition at 1 µM [2]: 99.4%
IC50 ([2]; from the IC50 values of Table 1, used for QSAR, read-out: pIC50 (RAF1) (converted)): 8.2 nM
inhibition at 1 µM [36]: 41.2%
inhibition at 1 µM [37]: 12.2%

O=C(NCCNc1nccc(-c2c(-c3cccc(O)c3)nc3sccn23)n1)c1ccccc1O [Compound 1zc]
One-dose (1 µM) results against V600E-B-RAF (% inhibition) [1]: 101.07% ± 1.53%
IC50 [1, 38]: 1.9 nM
pIC50 (V600E- B-RAF) [1, 39]: 8.721
One-dose (1 µM) results against RAF1 (% inhibition) [2]: 99.32% ± 0.23%
IC50 [2, 40]: 10.5 nM
pIC50 (RAF1) [2, 39]: 7.979

O=C(NCCNc1nccc(-c2c(-c3cccc(O)c3)nc3sccn23)n1)c1ccc(N2CCOCC2)c(C(F)(F)F)c1 [Compound 1zg]
inhibition at 1 µM [1]: 99%
IC50 ([1]; from the IC50 values of Table 1, used for QSAR, read-out: pIC50 (V600E- B-RAF) (converted)): 15.8 nM
inhibition at 1 µM [2]: 90.8%
IC50 [2, 40]: 158 nM

CNC(=O)c1cc(Oc2ccc(NC(=O)Nc3ccc(Cl)c(C(F)(F)F)c3)cc2)ccn1 [Sorafenib, sorafenib, reference compound]
IC50 [10]: 1.95 ± 0.08 µM
IC50 [15]: 11.6 ± 0.46 µM
IC50 [16]: 5.45 ± 0.53 µM
IC50 [20]: 1950 to 5450 nM
IC50 [30]: 3.16 ± 0.2 µM
